Source: US20210253598A1, “ARYL ANNULATED MACROCYCLIC INDOLE DERIVATIVES” (priority 2017, published 2021)
Counter-ions that a name gives are not always drawn. Like-named read-outs stand apart in the source and are kept apart here.

Experiments:
[1] = molecular target: MCL-1 (Homo sapiens, UniProt Q07820, K194A/K197A/R201A); test: Protein-protein interaction assay MCL-1/Noxa BH3 peptide, TR-FRET (MCL-1 assay, Assay 1); type: binding; details: MCL-1 Assay [M] (median), MBP-MCL-1 / Noxa BH3 peptide
Outline: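 Human MBP-fused MCL-1 (aa 173-321; 1 nM final) was pre-incubated 10 min at 22 °C with compound in pH 7 Tris buffer containing NaCl, KF, Tween-20, DTT and BGG. Displacement of biotinylated Noxa BH3 peptide was read by TR-FRET (anti-MBP-Eu cryptate/streptavidin-XL665) after 1 h at 22 °C plus overnight at 4 °C. IC50 came from four-parameter fits against DMSO controls.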

[2] = system: SUDHL5; test: Induction of caspase-3/7 activity in SUDHL5 cells (Assay 4); type: cell-based; details: Homo sapiens, SU-DHL-5, 3 h
Outline: (§1)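 DLBCL lines SUDHL5 and SUDHL10 were treated with compound for 3 h at 37 °C. Caspase-3/7 activity was then read by Caspase-Glo 3/7 luminescence after 1 h at 37 °C. Medium-only background was subtracted and values were normalized to the mean of DMSO-treated cells.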

[3] = system: SUDHL10; test: Induction of caspase-3/7 activity in SUDHL10 cells (Assay 4); type: cell-based; details: Homo sapiens, SU-DHL10, 3 h
Outline: as §1

[4] = system: SUDHL5; test: Induction of cytotoxicity in SUDHL5 cells, CellTiter-Glo (Assay 6); type: cell-based; details: SUDHL5, 5 hours incubation, median, read-out: Cytotox SUDHL5 [M] (median)
Outline: (§2)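 Overnight seeding at 37 °C, 5 h treatment, CellTiter-Glo added, 15 min shake at RT, luminescence read. Medium without cells as control.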

[5] = system: SUDHL10; test: Induction of cytotoxicity in SUDHL10 cells, CellTiter-Glo (Assay 6); type: cell-based; details: SUDHL10, 5 hours incubation, median, read-out: Cytotox SUDHL10 [M] (median)
Outline: as §2

[6] = system: SUDHL5; test: Anti-proliferative effect in SUDHL5 cells, CellTiter-Glo (Assay 7); type: cell-based; details: Homo sapiens, SU-DHL-5, 72 h
Experimental: (§3) Assessment of the Anti-Proliferative Effect of Compounds in Different Cell Lines
(§4) The impact of compounds on the proliferation of different cell lines was assessed using the CellTiter-Glo® Luminescent Cell Viability reagent from Promega (G7573).
(§5) In parallel, cells were plated in a reference (day 0) plate for time zero determination. Cells were incubated in a humidified incubator at 37° C. overnight.
(§6) Rim wells were excluded. The cells were incubated for 72 hours in a humidified incubator at 37° C. The day 0 plate was measured by adding 30 μL/well of CTG solution (CellTiter-Glo® Luminescent Cell Viability reagent, Promega G7573) to time zero wells in the reference plate followed by a 10 minutes incubation and luminescence reading at 0.1 ms. using the PHERAstar FS microplate reader (BMG Labtech).
(§7) After 72 hours incubation, the treated plates were measured in the same way as the day 0 plate mentioned above. The Bella DRC Master Sheet was used to calculate IC50s, with CI=day 0 values and C0=DMSO control values.

[7] = system: MV-4-11; test: Anti-proliferative effect in MV-4-11 cells, CellTiter-Glo (Assay 7); type: cell-based; details: several values per example
Experimental: as §3, §4, §5, §6, §7

[8] = system: A2780; test: Anti-proliferative effect in A2780 cells, CellTiter-Glo (Assay 7); type: cell-based; details: Homo sapiens, A2780, 72 h, several values per example
Experimental: as §3, §4, §5, §6, §7

[9] = system: AMO-1; test: Anti-proliferative effect in AMO-1 cells, CellTiter-Glo (Assay 7); type: cell-based; details: AMO-1, 72 hours incubation, CellTiter-Glo, several values per example, read-out: Antiproli AMO-1
Experimental: as §3, §4, §5, §6, §7

[10] = SUDHL5, 3 hours treatment, Caspase-Glo 3/7, median, read-out: Caspase SUDHL5 [M] (median)
[11] = SUDHL10, 3 hours treatment, Caspase-Glo 3/7, median, read-out: Caspase SUDHL10 [M] (median)
[12] = SUDHL5, 72 hours incubation, CellTiter-Glo, median, read-out: Antiproli SUDHL5 [M] (median)
[13] = Homo sapiens, MV4-11, 72 h, MV-4-11, 72 hours incubation, CellTiter-Glo, read-out: Antiproli MV-4-11
[14] = A2780, 72 hours incubation, CellTiter-Glo, read-out: Antiproli A2780

Sequence of MCL-1 (Q07820 173-321 K194A/K197A/R201A, looked up): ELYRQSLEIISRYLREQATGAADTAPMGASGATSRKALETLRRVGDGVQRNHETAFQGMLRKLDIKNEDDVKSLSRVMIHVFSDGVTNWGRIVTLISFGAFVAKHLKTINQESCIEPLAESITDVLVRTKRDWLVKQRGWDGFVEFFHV

Structure (SMILES)	IC50 [1]	EC50 [2, 10]	EC50 [3, 11]	IC50 ([4]; Homo sapiens, SU-DHL-5, 5 h)	IC50 ([5]; Homo sapiens, SU-DHL10, 5 h)	IC50 [6, 12]	IC50 [7, 13]	IC50 [8, 14]	IC50 ([9]; Homo sapiens, AMO1, 72 h)	IC50 ([7]; MV-4-11, 72 hours incubation, CellTiter-Glo, read-out: Antiproli MV-4-11)	IC50 [9]	IC50 [4]	IC50 [5]	EC50 ([2]; read-out: Caspase SUDHL5 [M] (median), SUDHL5, 3 hours treatment, Caspase-Glo 3/7)	EC50 ([3]; read-out: Caspase SUDHL10 [M] (median), SUDHL10, 3 hours treatment, Caspase-Glo 3/7)	IC50 ([6]; read-out: Antiproli SUDHL5 [M] (median), SUDHL5, 72 hours incubation, CellTiter-Glo)	IC50 ([7]; Homo sapiens, MV4-11, 72 h, read-out: Antiproli MV-4-11 [M], MV-4-11, 72 hours incubation, CellTiter-Glo)	IC50 ([8]; read-out: Antiproli A2780 [M], A2780, 72 hours incubation, CellTiter-Glo)
Cc1c2c(nn1C)CN(C(=O)NCC1CCOCC1)Cc1ccccc1Cn1c(C(=O)O)c(CCCOc3cccc4ccccc34)c3cccc-2c31 (racemic) [Example 27, (rac)-4,5-Dimethyl-17-[3-(naphthalen-1-yloxy)propyl]-8-[(tetrahydro-2H-pyran-4-ylmethyl)-carbamoyl]-7,8,9,14-tetrahydro-5H-indolo[1,7-bc]pyrazolo[4,3-e][2,8]benzodiazacycloundecine-16-carboxylic Acid]	3.1e-08 M	> 3.3e-05 M	> 3.3e-05 M	> 3.3e-05 M	> 3.3e-05 M	2.7e-05 M	2.48e-05 M	3.14e-05 M										
Cc1c2c(nn1C)CN(S(=O)(=O)CCN1CCOCC1)Cc1ccccc1Cn1c(C(=O)O)c(CCCOc3cccc4ccccc34)c3cccc-2c31 (racemic) [Example 30, (rac)-4,5-Dimethyl-8-{[2-(morpholin-4-yl)ethyl]sulfonyl}-17-[3-(naphthalen-1-yloxy)propyl]-7,8,9,14-tetrahydro-5H-indolo[1,7-bc]pyrazolo[4,3-e][2,8]benzodiazacycloundecine-16-carboxylic Acid]	3.7e-08 M	8.5e-06 M	> 3.3e-05 M	8.6e-06 M	2.9e-05 M	4.6e-06 M	7.85e-06 M	1.71e-05 M										
Cc1c2c(nn1C)COCc1ccccc1Cn1c(C(=O)O)c(CCCOc3cccc4ccccc34)c3ccc(Cl)c-2c31 (racemic) [Example 36, (rac)-3-Chloro-4,5-dimethyl-17-[3-(naphthalen-1-yloxy)propyl]-5,7,9,14-tetrahydroindolo[7,1-fg]pyrazolo[3,4-d][2,8]benzoxazacycloundecine-16-carboxylic Acid]	3.2e-09 M	2.4e-06 M	5.5e-06 M	3.8e-06 M	4.9e-06 M	3.6e-06 M	1.38e-06 M	2.31e-05 M										
Cc1c2c(nn1C)COCc1cccnc1Cn1c(C(=O)O)c(CCCOc3cccc4ccccc34)c3ccc(Cl)c-2c31 (racemic) [Example 39, (rac)-3-Chloro-4,5-dimethyl-17-[3-(naphthalen-1-yloxy)propyl]-5,7,9,14-tetrahydropyrazolo-[4′,3′:9,10]pyrido[3′,2′:3,4][1,6]oxazacycloundecino[8,7,6-hi]indole-16-carboxylic Acid]	1.6e-09 M	3.7e-06 M	5.7e-06 M	3.3e-06 M	6.7e-06 M	2.4e-06 M	1.56e-05 M	> 3.3e-05 M										
Cc1c2c(nn1C)COCc1nccnc1Cn1c(C(=O)O)c(CCCOc3cccc4ccccc34)c3ccc(Cl)c-2c31 (racemic) [Example 45, (rac)-3-Chloro-4,5-dimethyl-17-{3-[(naphthalen-1-yl)oxy]propyl}-5,7,9,14-tetrahydropyrazino-[2′,3′:3,4]pyrazolo[4′,3′:9,10][1,6]oxazacycloundecino[8,7,6-hi]indole-16-carboxylic Acid]		2.2e-06 M	7.9e-06 M	2.7e-06 M	8.2e-06 M		1.19e-05 M		9.56 µM									
CCc1nn(CCN2CCOCC2)c2c1-c1c(Cl)ccc3c(CCCOc4cccc5cc(F)ccc45)c(C(=O)O)n(c13)Cc1ccccc1COC2 (racemic) [Example 51, (rac)-3-Chloro-4-ethyl-17-{3-[(6-fluoronaphthalen-1-yl)oxy]propyl}-6-[2-(morpholin-4-yl)ethyl]-6,7,9,14-tetrahydroindolo[7,1-fg]pyrazolo[3,4-d][2,8]benzoxazacycloundecine-16-carboxylic Acid]	1.5e-09 M	8.7e-07 M	1.8e-06 M	1.1e-06 M	1.9e-06 M	7.1e-07 M	1.96e-06 M		4.26 µM	2.58e-06 M	2.64 µM							
Cc1nn(C)c2c1-c1c(F)ccc3c(CCCOc4ccc(F)c5ccccc45)c(C(=O)O)n(c13)Cc1ccccc1COC2 (racemic) [Example 82, (rac)-15-Fluoro-1-(3-((4-fluoronaphthalen-1-yl)oxy)propyl)-12,14-dimethyl-4,9,11,12-tetrahydrobenzo[3,4]pyrazolo[4′,3′:9,10][1]oxa[6]azacycloundecino[8,7,6-hi]indole-2-carboxylic Acid]	1.2e-08 M	2.2e-05 M	> 3.3e-05 M	2.4e-05 M	> 3.3e-05 M	1e-05 M	1.45e-05 M	2.85e-05 M										
CCc1c2c(nn1C)COCc1ccccc1Cn1c(C(=O)O)c(CCCOC3CCCc4ccccc43)c3ccc(F)c-2c31 (racemic) [Example 92, (rac)-14-Ethyl-15-fluoro-13-methyl-1-(3-((1,2,3,4-tetrahydronaphthalen-1-yl)oxy)propyl)-4,9,11,13-tetrahydrobenzo[3,4]pyrazolo[4′,3′:9,10][1]oxa[6]azacycloundecino[8,7,6-hi]indole-2-carboxylic Acid]	1.8e-08 M	1.5e-05 M	> 3.3e-05 M	8.1e-06 M	> 3.3e-05 M	> 3.3e-05 M	6.15e-06 M	> 3.3e-05 M										
Cc1c2c(nn1C)CN(C)Cc1ccccc1Cn1c(C(=O)O)c(CCCOc3cccc4ccccc34)c3cccc-2c31 (single isomer, unassigned; enantiomer 2) [Example 16, 4,5,8-Trimethyl-17-[3-(naphthalen-1-yloxy)propyl]-7,8,9,14-tetrahydro-5H-indolo[1,7-bc]pyrazolo[4,3-e][2,8]benzodiazacycloundecine-16-carboxylic Acid (Enantiomer 2)]	1.1e-07 M	2.4e-05 M	> 3.3e-05 M				1.15e-05 M		20.3 µM			2.4e-05 M	3e-05 M					
Cc1c2c(nn1C)COCc1ncccc1Cn1c(C(=O)O)c(CCCOc3cccc4ccccc34)c3ccc(Cl)c-2c31 (single isomer, unassigned; enantiomer 2) [Example 44, 3-Chloro-4,5-dimethyl-17-[3-(naphthalen-1-yloxy)propyl]-5,7,9,14-tetrahydropyrazolo-[4′,3′:9,10]pyrido[2′,3′:3,4][1,6]oxazacycloundecino[8,7,6-hi]indole-16-carboxylic acid-N-ethylethanamine Salt (Enantiomer 2)]	5.2e-09 M			7.9e-06 M	1.5e-05 M									7.8e-06 M	1.5e-05 M	5.7e-06 M	1.54e-05 M	2.37e-05 M
